One block for each compound: values may come before it.
Legend:
Histone deacetylase [1] = experiment: Inhibition of HDAC from human K562 cells; format: cell-based
HT-1080 = experiment: Inhibition of human HT1080 cells; format: functional, cell-based
Histone deacetylase [2] = experiment: Inhibition of HDAC from human HeLa cells; format: cell-based
SQ20B = experiment: Inhibition of human SQ20B cells; format: functional, cell-based
Histone deacetylase 1 [3] = biological target: T1, Histone deacetylase 1 (Homo sapiens, UniProt Q13547); experiment: Inhibition of HDAC1 from human HeLa cells; format: cell-based
SK-BR-3 = experiment: Antiproliferative activity against human SKBR3 cells; format: functional, cell-based
MM96L = experiment: Inhibition of human MM96L cells; format: functional, cell-based
[4] = Growth inhibition of human neonatal foreskin fibroblasts cells; format: functional, cell-based; details: Fibroblast
MCF7 = experiment: Inhibition of human MCF7 cells; format: functional, cell-based
HCT-116 = experiment: Inhibition of human HCT116 cells; format: functional, cell-based
SW-620 = experiment: Inhibition of human SW620 cells; format: functional, cell-based
[5] = Inhibition of human CCD1059SK cells; format: functional, cell-based
A549 = experiment: cells; details: Homo sapiens
Description: Antiproliferative activity against human A549 cells

Histone deacetylase 8 [6] = biological target: T2, Histone deacetylase 8 (Homo sapiens, UniProt Q9BY41)
T2 sequence (Q9BY41 whole entry): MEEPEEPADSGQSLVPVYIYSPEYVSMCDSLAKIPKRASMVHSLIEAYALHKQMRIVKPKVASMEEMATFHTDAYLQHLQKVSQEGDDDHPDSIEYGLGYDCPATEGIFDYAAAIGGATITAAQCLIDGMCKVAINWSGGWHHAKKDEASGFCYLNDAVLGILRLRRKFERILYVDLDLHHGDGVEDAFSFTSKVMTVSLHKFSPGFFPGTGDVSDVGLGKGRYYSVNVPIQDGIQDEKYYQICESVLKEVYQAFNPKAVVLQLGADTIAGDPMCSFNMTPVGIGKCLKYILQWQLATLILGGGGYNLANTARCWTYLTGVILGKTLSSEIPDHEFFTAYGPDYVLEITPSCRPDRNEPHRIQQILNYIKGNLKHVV
Description: Inhibition of human HDAC8

Histone deacetylase 1 [7] = biological target: T1, Histone deacetylase 1
Histone deacetylase 8 [8] = biological target: T2, Histone deacetylase 8; remark: listed apart in the source
Histone deacetylase [9] = experiment: Inhibition of human liver HDAC
Histone deacetylase [10] = experiment: Inhibition of HDAC in human CEM cells; format: cell-based; details: ccrf-cem
CCRF-CEM = experiment: Inhibition of human CEM cells assessed as viability; format: functional, cell-based
[11] = Inhibition of mouse SC9 cells; format: functional, cell-based
Histone deacetylase 1 [12] = biological target: T1, Histone deacetylase 1; remark: listed apart in the source
Description: Inhibition of human HDAC1

T1 sequence (Q13547 whole entry): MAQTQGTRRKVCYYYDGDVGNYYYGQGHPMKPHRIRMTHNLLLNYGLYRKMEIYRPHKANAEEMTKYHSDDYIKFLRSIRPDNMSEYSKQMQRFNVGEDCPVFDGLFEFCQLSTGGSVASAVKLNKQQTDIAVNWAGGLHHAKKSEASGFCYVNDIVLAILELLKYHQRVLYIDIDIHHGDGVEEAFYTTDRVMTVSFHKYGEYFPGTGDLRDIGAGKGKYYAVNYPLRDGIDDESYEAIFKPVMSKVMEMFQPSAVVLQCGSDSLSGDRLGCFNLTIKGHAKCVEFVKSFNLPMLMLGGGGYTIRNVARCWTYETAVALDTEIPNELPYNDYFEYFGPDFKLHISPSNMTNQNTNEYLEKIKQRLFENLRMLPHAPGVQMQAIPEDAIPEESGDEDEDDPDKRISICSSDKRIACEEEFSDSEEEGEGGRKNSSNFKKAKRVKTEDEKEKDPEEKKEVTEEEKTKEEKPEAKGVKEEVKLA

SMILES: CC(=O)CCCCC[C@H](NC(=O)C1CCCCN1C)C(=O)NCCc1c(-c2ccccc2)[nH]c2ccccc12 (stereo partly specified)
IC50 (Histone deacetylase 1 [3]): 2.5 µM

SMILES: O=C(CCCSC[C@H](NC(=O)c1ccc2ccccc2c1)C(=O)NCc1ccccc1)NO
IC50 (MM96L): 0.6 µM | IC50 [4]: 1.14 µM

SMILES: Nc1ccccc1NC(=O)c1ccc(CN(CCO)Cc2ccccc2)cc1
IC50 (SK-BR-3): 3.9 µM | IC50 (MCF7): 10 µM | IC50 (HCT-116): 0.9 µM | IC50 (SW-620): 3.3 µM | IC50 [5]: 19.4 µM | IC50 (A549): 20.5 µM

SMILES: O=C(Cc1ccc(-c2csc(NC(=O)COc3ccccc3)n2)s1)NO
IC50 (Histone deacetylase 1 [7]): 0.7 µM | IC50 (Histone deacetylase 8 [8]): 0.038 µM

SMILES: Cn1cc(CN(CCO)Cc2ccc(C(=O)Nc3ccccc3N)cc2)c2ccccc21
IC50 (SK-BR-3): 6.9 µM | IC50 (MCF7): 8.4 µM | IC50 (HCT-116): 5.7 µM | IC50 (SW-620): 4.5 µM | IC50 [5]: 28.3 µM | IC50 (A549): 20.8 µM

SMILES: O=C(Cc1ccc(-c2csc(NC(=O)Cc3ccccc3)n2)s1)NO
IC50 (Histone deacetylase 1 [7]): > 0.1 µM

SMILES: O=C(CCCCCNC(=S)CS)Nc1ccccc1
IC50 (Histone deacetylase [2]): 13.3 µM | IC50 (Histone deacetylase 8 [6]): > 40 µM

SMILES: Nc1ccccc1NC(=O)c1ccc(CN(CCO)Cc2ccc3c(c2)OCO3)cc1
IC50 (SK-BR-3): 3.5 µM | IC50 (MCF7): 3.8 µM | IC50 (HCT-116): 0.8 µM | IC50 (SW-620): 2.2 µM | IC50 [5]: 41.7 µM | IC50 (A549): 20 µM

SMILES: COc1cccc(OC)c1-c1csc(CCCCCCC(=O)NO)n1
IC50 (Histone deacetylase [1]): 0.0043 µM | IC50 (HT-1080): 2 µM

SMILES: O=C(CCCSC[C@H](NC(=O)c1ccc(-c2ccccc2)cc1)C(=O)NCc1ccccc1)NO
IC50 (MM96L): 0.9 µM | IC50 [4]: 2.8 µM

SMILES: O=C(NO)c1cnc(N2CCC(NS(=O)(=O)c3ccc4ccccc4c3)CC2)s1
GI50 (MCF7): 0.7 µM

SMILES: O=C(CCCCCCc1ncc(-c2ccc(-c3ccc(Cl)cc3)cc2)o1)NO
IC50 (Histone deacetylase [1]): 0.0068 µM | IC50 (HT-1080): 0.66 µM

SMILES: O=C(CCCCC[S+]([O-])c1ccccc1)NO (stereo unspecified)
IC50 (Histone deacetylase [9]): 0.06 µM | IC50 (Histone deacetylase [10]): 7.4 µM | IC50 (CCRF-CEM): > 25 µM

SMILES: O=C(CCCCCSc1ccc(NS(=O)(=O)c2ccc(Cl)cc2)cc1)NO
IC50 (Histone deacetylase [9]): 0.11 µM | IC50 (Histone deacetylase [10]; read-out: IC50): 9.4 µM | IC50 (CCRF-CEM): > 25 µM

SMILES: CC(=O)CCCCC[C@H](NC(=O)C1CCCN(C)C1)C(=O)NCCc1c(-c2ccccc2)[nH]c2ccccc12 (stereo partly specified)
IC50 (Histone deacetylase 1 [3]): 2 µM

SMILES: COc1ccc(-c2ccnc(NCc3ccc(C(=O)Nc4ccccc4N)cc3)n2)cn1
IC50 (HCT-116): 0.1 µM | IC50 (Histone deacetylase 1 [7]): 0.6 µM

SMILES: COc1ccc(CN(CCO)Cc2ccc(C(=O)Nc3ccccc3N)cc2)cc1
IC50 (SK-BR-3): 3.4 µM | IC50 (MCF7): 4.9 µM | IC50 (HCT-116): 0.8 µM | IC50 (SW-620): 2.1 µM | IC50 [5]: 18.4 µM | IC50 (A549): 17.3 µM

SMILES: CC(=O)CCCCC[C@H](NC1CCCCN1C)C(=O)Nc1cccc(-c2ccccc2)c1 (stereo partly specified)
IC50 (Histone deacetylase 1 [3]): 0.5 µM | IC50 (Histone deacetylase 1 [12]): 0.079 µM

SMILES: Nc1ccccc1NC(=O)c1ccc(Cn2c(=O)[nH]c3ccccc3c2=O)cc1
IC50 (HCT-116): 0.6 µM | IC50 (Histone deacetylase 1 [7]): 2 µM

SMILES: COc1ccc(-c2csc(CCCCCCC(=O)NO)n2)cc1
IC50 (Histone deacetylase [1]): 0.0025 µM | IC50 (HT-1080): 3.63 µM

SMILES: Nc1ccccc1NC(=O)c1ccc(CN(CCO)Cc2ccc(F)c(F)c2)cc1
IC50 (SK-BR-3): 3.6 µM | IC50 (MCF7): 10.4 µM | IC50 (HCT-116): 0.8 µM | IC50 (SW-620): 3.6 µM | IC50 [5]: 94.8 µM | IC50 (A549): 24.2 µM

The next lines start with results.

IC50 (Histone deacetylase [1]): 0.0085 µM | IC50 (HT-1080): 5.68 µM
SMILES: O=C(CCCCCCc1nc(-c2ccc(Br)cc2)cs1)NO

IC50 (Histone deacetylase [2]): 0.8 µM | IC50 (SQ20B): 50 µM
SMILES: CN(C)c1ccc(CNC(=O)NCCCCC(=O)NO)cc1

IC50 (SK-BR-3): 0.8 µM
SMILES: O=C(CCCCCCC(=O)Nc1ccccc1)NO [VORINOSTAT]

IC50 (Histone deacetylase [1]): 0.019 µM | IC50 (HT-1080): 5.07 µM
SMILES: O=C(CCCCCCc1nc(-c2ccccc2)cs1)NO

IC50 (Histone deacetylase [2]): > 40 µM | IC50 (Histone deacetylase 8 [6]): > 40 µM
SMILES: CSCC(=O)CCCCCCC(=O)Nc1ccccc1

IC50 (Histone deacetylase [9]): 0.18 µM | IC50 (Histone deacetylase [10]; read-out: IC50): 2.24 µM | IC50 (CCRF-CEM): 3.4 µM
SMILES: CN(C)c1ccc([S+]([O-])CCCCCC(=O)NO)cc1 (stereo unspecified)

IC50 (Histone deacetylase [9]): 0.26 µM | IC50 (Histone deacetylase [10]): > 25 µM | IC50 (CCRF-CEM): > 25 µM
SMILES: O=C(CCCCCSc1ccc(Cl)cc1)NO

IC50 (Histone deacetylase [9]): 0.38 µM | IC50 (Histone deacetylase [10]; read-out: IC50): 1.6 µM | IC50 (CCRF-CEM): 12.3 µM
SMILES: O=C(CCCCCC[S+]([O-])c1ccc(Cl)cc1)NO (stereo unspecified)

IC50 (MM96L): 0.14 µM
SMILES: CN(C)c1ccc(C(=O)N[C@@H](CSCCCC(=O)NO)C(=O)NCc2ccccc2)cc1
IC50 [4]: 0.35 µM

IC50 (Histone deacetylase [2]): 1 µM | IC50 (SQ20B): 50 µM
SMILES: CN(C)c1ccc(CNC(=O)NCCCCCCC(=O)NO)cc1

IC50 [11]: 317 µM | IC50 (Histone deacetylase 1 [12]): 0.013 µM
SMILES: O=C(CN(CCCCCCC(=O)Nc1ccccc1)CC(=O)Nc1ccccc1)NO

IC50 (Histone deacetylase [2]): > 40 µM | IC50 (Histone deacetylase 8 [6]): > 40 µM
SMILES: O=C(CO)NCCCCCC(=O)Nc1ccccc1

IC50 (MM96L): 0.2 µM
SMILES: O=C(CCCSC[C@H](NC(=O)c1ccc(Br)cc1)C(=O)NCc1ccccc1)NO
IC50 [4]: 0.83 µM

IC50 (Histone deacetylase [9]): 0.12 µM | IC50 (Histone deacetylase [10]; read-out: IC50): 9.4 µM | IC50 (CCRF-CEM): > 25 µM
SMILES: O=C(CCCCCSc1ccccc1)NO

Reference: ChEMBL document CHEMBL1142268, “Histone deacetylase inhibitors: from bench to clinic” (J Med Chem, 2008)
